{"source": "patent US20250186540A1", "about": "“VIPR2 ANTAGONIST PEPTIDE FOR SUPPRESSING CANCER METASTASIS” (ICHIMARU PHARCOS CO., LTD., priority 2022, published 2025)", "key": {"[1]": {"test_system": "MDA-MB-231 breast cancer cells stably expressing VIPR2-EGFP", "assay": "Transwell migration test with KS-133", "format": "cell-based", "experimental": "(§1) In addition, the measurement was performed according to the method described above (Asano et al. 2012, Mol. Cell Biol. 32, 3242-3252) using a Boyden chamber. To each well, 600 μL of a serum-free culture solution containing 200 nM VIP was added. Cells (1×10^4 cells) were suspended in 100 μL of a serum-free culture solution and added to the insert. The cells were allowed to migrate for 30 or 48 hours at 37° C. Non-mobile cells adhering to the upper surface of the membrane were removed, and mobile cells adhering to the lower surface were fixed with 4% paraformaldehyde and counted with a fluorescence microscope.\nUsing the transwell shown in FIG. 7, the effect of KS-133 on migration of MDA-MB-231 breast cancer cells stably expressing VIPR2-EGFP was examined. MDA-MB-231 cells stably expressing VIPR2-EGFP were suspended in serum-free medium containing KS-133 at each of the concentrations of 0 nM to 1000 nM (1×10^4 cells/100 μL). A serum-free medium 6 containing 200 nM VIP and KS-133 at each of the concentrations was added to each well in an amount of 600 μL, and an insert 3 having 3 μm pores 5 was immersed in the well. Then, the suspended cells 1 were added to the insert 3, and incubated under conditions of 37° C. and 5% CO2. After 48 hours, the cells were fixed, cells on the surface of the insert 3 were removed, and then fluorescence of EGFP of cells 2 that had moved to the rear surface in response to induction by VIP was detected with a fluorescence microscope. The number of the cells that had moved to the rear surface of the insert was graphed based on the fluorescence image.\nFIG. 8A is a fluorescence micrograph showing migrated cells. FIG. 8B and Table 2 show the number of migrated cells when each concentration of KS-133 was added."}, "[2]": {"test_system": "phosphorylation of AKT in MDA-MB-231 cells stably expressing VIPR2-EGFP", "assay": "Phosphorylation of AKT by VIP in the presence and absence of KS-133 (Western blotting)", "format": "cell-based", "experimental": "(§2) Western blotting was performed according to a previously described method (Asano et al. 2014, Biol. Open3, 463-474; Asano et al. 2019, Sci. Rep. 9, 12729).\nPathway by VIP in MDA-MB-231 Cells Stably Expressing VIPR2-EGFP>Phosphorylation of AKT by VIP in MDA-MB-231 cells stably expressing VIPR2-EGFP was evaluated in the presence and absence of KS-133."}, "[3]": {"test_system": "MCF-7 cells overexpressing VIPR2-EGFP", "assay": "Cell proliferation test with KS-133", "format": "cell-based", "conditions": "for Number of cells (mean value): 100 nM KS-133, 100 nM VIP, 2% FBS", "experimental": "This effect was confirmed. The cell proliferation test was performed according to NON-PATENT DOCUMENT 3. MCF-7 cells overexpressing VIPR2-EGFP were seeded in a 35 mm culture dish at a density of 1×10^5 cells/dish for 6 hours, and the culture medium was replaced with a fresh medium containing 2% FBS, 100 nM VIP, and 0 nM or 100 nM KS-133 (day 0). Cells were observed under a BZ-X800 fluorescence microscope (Keyence, Kyoto, Japan) and the number of cells was counted every 24 hours for up to 4 days by trypan blue dye staining using a hemacytometer (timecourse experiment)."}, "[4]": {"test_system": "psychiatric disease model mice", "conditions": "NON-PATENT DOCUMENT 2; cited from earlier work"}, "[5]": {"test_system": "phosphorylation of AKT in MCF-7 cells", "assay": "Phosphorylation of AKT on VIP stimulation (Western blotting)", "format": "cell-based", "conditions": "MCF-7 cells starved 3 hours, 0 nM to 1000 nM VIP for 10 minutes", "experimental": "as §2\nTo investigate whether VIP is involved in cell movement via the PI3K/PI(3,4,5)P3 pathway, phosphorylation of AKT, a downstream signal of the PI3K/PI(3,4,5)P3 pathway in cancer cells, was assessed by Western blotting. […] All experiments were independently performed at least three times, and similar data were obtained."}, "[6]": {"test_system": "MDA-MB-231 cells stably expressing EGFP or VIPR2-EGFP", "assay": "Transwell chamber assay of VIP-induced movement", "format": "cell-based", "conditions": "200 nM VIP; 30 hours", "experimental": "as §1\nCells were suspended in serum-free media (1×10^4 cells/[…]). A serum-free medium 6 containing 200 nM VIP was added to each well in an amount of 600 μL, and an insert 3 having 3 μm pores 5 was immersed in the well. […] After 30 hours, cells were fixed, cells on the surface of the insert 3 were removed, and then fluorescence of EGFP of cells 2 that had moved to the rear surface in response to VIP was detected with a fluorescence microscope. The number of the cells that had moved to the rear surface of the insert was graphed based on the fluorescence image. […] VIP (200 nM) was added to the well, the cells were added to the insert and incubated at 37° C. for 30 hours, and cells that had moved to the rear side of the insert were quantified and shown graphically."}, "[7]": {"test_system": "MDA-MB-231 cells stably expressing EGFP or VIPR2-EGFP", "assay": "WAVE2-rich lamellipodia area after VIP stimulation", "format": "cell-based", "conditions": "100 nM VIP; 30 minutes", "experimental": "MDA-MB-231 cells (2×10^5 cells) stably expressing EGFP or VIPR2-EGFP were seeded on collagen-coated cover glass and incubated under conditions of 37° C. and 5% CO2. After 24 hours, the cells were washed with serum-free medium, and fresh serum-free medium was added to incubate the cells (under conditions of 37° C. and 5% CO2). After 3 hours, the medium was replaced with serum-free medium containing 100 nM VIP, and incubation for 30 minutes was performed. The cells were fixed with 4% paraformaldehyde, and immunostained using an anti-WAVE2 antibody. The surface area of a WAVE2-rich region immediately below the cell membrane was measured from a fluorescently-stained image of the same and graphed.\nData are shown as mean±SD. **: p<0.01, ***: p<0.001, between indicated groups (Kruskal-Wallis test and Dunn's multiple comparison test). “n.s.” indicates not statistically significant. […] The MDA-MB-231 cells stably expressing VIPR2-EGFP had more pronounced area expansion of lamellipodia compared to the control MDA-MB-231 cells expressing EGFP."}}, "note": "Positions of bridges follow the written chain, without caps; N, C: chain ends."}
{"substance": "Ac-c[Cys^1-Pro^2-Pro^3-Tyr^4-Leu^5-Pro^6-c(Lys^7-Tyr^8-Leu^9-Cys^10]-Asp^11)-Leu^12-Ile^13-NH2 (Ac-CPPYLPKYLCDLI-NH2; disulfide 1-10; lactam 7-11; SMILES CC[C@H](C)[C@H](NC(=O)[C@H](CC(C)C)NC(=O)[C@@H]1CC(=O)NCCCC[C@@H]2NC(=O)[C@@H]3CCCN3C(=O)[C@H](CC(C)C)NC(=O)[C@H](Cc3ccc(O)cc3)NC(=O)[C@@H]3CCCN3C(=O)[C@@H]3CCCN3C(=O)[C@@H](NC(C)=O)CSSC[C@H](NC(=O)[C@H](CC(C)C)NC(=O)[C@H](Cc3ccc(O)cc3)NC2=O)C(=O)N1)C(N)=O) [KS-133]", "values": [{"measurement": "VIP-induced cell migration", "setting": "[1]; 200 nM VIP, KS-133 0 nM to 1000 nM, 48 hours", "value": "suppressed"}, {"measurement": "Mean cell count (migrated cells)", "setting": "[1]; KS-133 30 nM, 200 nM VIP, 48 hours", "value": 4.35, "unit": "Cells/mm^2"}, {"measurement": "Mean cell count (migrated cells)", "setting": "[1]; KS-133 100 nM, 200 nM VIP, 48 hours", "value": 2.08, "unit": "Cells/mm^2"}, {"measurement": "Mean cell count (migrated cells)", "setting": "[1]; KS-133 300 nM, 200 nM VIP, 48 hours", "value": 1.39, "unit": "Cells/mm^2"}, {"measurement": "Mean cell count (migrated cells)", "setting": "[1]; KS-133 1000 nM, 200 nM VIP, 48 hours", "value": 0.78, "unit": "Cells/mm^2"}, {"measurement": "KS-133 concentration showing a significant difference in migration compared to the absence of KS-133", "setting": "[1]; Kruskal-Wallis test and Dunn's multiple comparison test", "value": "≥ 100", "unit": "nM"}, {"measurement": "expression of AKT", "setting": "[2]", "value": "did not affect the expression of AKT"}, {"measurement": "phosphorylation of AKT induced by VIP", "setting": "[2]; presence vs absence of KS-133", "value": "strongly suppressed phosphorylation of AKT induced by VIP in an addition concentration-dependent manner"}, {"measurement": "Number of cells (mean value)", "setting": "[3]; Day 0", "value": "1.0 × 10^5"}, {"measurement": "Number of cells (mean value)", "setting": "[3]; Day 1", "value": "0.85 × 10^5"}, {"measurement": "Number of cells (mean value)", "setting": "[3]; Day 2", "value": "0.65 × 10^5"}, {"measurement": "Number of cells (mean value)", "setting": "[3]; Day 3", "value": "0.45 × 10^5"}, {"measurement": "Number of cells (mean value)", "setting": "[3]; Day 4", "value": "0.2 × 10^5"}, {"measurement": "cell proliferation", "setting": "[3]; MCF-7 cells overexpressing VIPR2, addition of KS-133", "value": "significantly suppressed from Day 2 of culture or later"}, {"measurement": "cognitive decline", "setting": "[4]", "value": "suppress cognitive decline"}]}
{"substance": "Vasoactive intestinal peptide [VIP]", "values": [{"measurement": "phosphorylation of AKT", "setting": "[5]", "value": "phosphorylated in a VIP addition concentration-dependent manner"}, {"measurement": "number of cells that had moved to the back side of the insert", "setting": "[6]", "value": "increased"}, {"measurement": "WAVE2-rich area of lamellipodia", "setting": "[7]", "value": "expanded the WAVE2-rich area of lamellipodia"}]}
